± gives the expanded uncertainty stated by the source.
How the values were obtained:
[1] = heat capacity at constant pressure per volume; xn = mol fraction of the nth substance listed; conditions: 298.15 K, 101 kPa, Liquid, Flow calorimetry
[2] = xn = mol fraction of the nth substance listed; conditions: 298.15 K, 101 kPa, Liquid, Vibrating tube method
[3] = refractive index (Na D-line) (dimensionless); xn = mol fraction of the nth substance listed; conditions: 298.15 K, 101 kPa, Liquid, refractometer
[4] = excess molar enthalpy (molar enthalpy of mixing); xn = mol fraction of the nth substance listed; conditions: 298.15 K, 101 kPa, Liquid, Flow calorimetry

SMILES: O=C1CCCC1 [cyclopentanone] + C1CCOCC1
- heat capacity ([1]; x2 = 0.0715): 1697900 ± 2600 J/K/m3
- heat capacity ([1]; x2 = 0.1485): 1683000 ± 2600 J/K/m3
- heat capacity ([1]; x2 = 0.2279): 1667700 ± 2600 J/K/m3
- heat capacity ([1]; x2 = 0.3826): 1638300 ± 2500 J/K/m3
- heat capacity ([1]; x2 = 0.4613): 1623300 ± 2500 J/K/m3
- heat capacity ([1]; x2 = 0.5422): 1608000 ± 2500 J/K/m3
- heat capacity ([1]; x2 = 0.6258): 1592400 ± 2500 J/K/m3
- heat capacity ([1]; x2 = 0.6965): 1579400 ± 2400 J/K/m3
- heat capacity ([1]; x2 = 0.777): 1564600 ± 2400 J/K/m3
- heat capacity ([1]; x2 = 0.8588): 1549700 ± 2400 J/K/m3
- heat capacity ([1]; x2 = 0.9378): 1535300 ± 2400 J/K/m3
- mass density ([2]; x2 = 0.0621): 939.88 ± 0.48 kg/m3
- mass density ([2]; x2 = 0.1532): 933.66 ± 0.48 kg/m3
- mass density ([2]; x2 = 0.2354): 928.1 ± 0.48 kg/m3
- mass density ([2]; x2 = 0.309): 923.12 ± 0.47 kg/m3
- mass density ([2]; x2 = 0.3167): 922.64 ± 0.47 kg/m3
- mass density ([2]; x2 = 0.346): 920.67 ± 0.47 kg/m3
- mass density ([2]; x2 = 0.3516): 920.32 ± 0.47 kg/m3
- mass density ([2]; x2 = 0.3936): 917.52 ± 0.47 kg/m3
- mass density ([2]; x2 = 0.3997): 917.16 ± 0.47 kg/m3
- mass density ([2]; x2 = 0.4297): 915.15 ± 0.47 kg/m3
- mass density ([2]; x2 = 0.4312): 915.07 ± 0.47 kg/m3
- mass density ([2]; x2 = 0.4661): 912.74 ± 0.47 kg/m3
- mass density ([2]; x2 = 0.4676): 912.7 ± 0.47 kg/m3
- mass density ([2]; x2 = 0.5105): 909.9 ± 0.47 kg/m3
- mass density ([2]; x2 = 0.5187): 909.32 ± 0.47 kg/m3
- mass density ([2]; x2 = 0.5466): 907.55 ± 0.47 kg/m3
- mass density ([2]; x2 = 0.5498): 907.3 ± 0.47 kg/m3
- mass density ([2]; x2 = 0.5959): 904.37 ± 0.46 kg/m3
- mass density ([2]; x2 = 0.6289): 902.25 ± 0.46 kg/m3
- mass density ([2]; x2 = 0.6335): 901.96 ± 0.46 kg/m3
- mass density ([2]; x2 = 0.6618): 900.16 ± 0.46 kg/m3
- mass density ([2]; x2 = 0.708): 897.22 ± 0.46 kg/m3
- mass density ([2]; x2 = 0.7941): 891.79 ± 0.46 kg/m3
- mass density ([2]; x2 = 0.8569): 887.85 ± 0.46 kg/m3
- mass density ([2]; x2 = 0.9351): 882.98 ± 0.45 kg/m3
- mass density ([2]; x2 = 0.939): 882.71 ± 0.45 kg/m3
- refractive index ([3]; x2 = 0.0723): 1.4337 ± 0.00021
- refractive index ([3]; x2 = 0.153): 1.43231 ± 0.00021
- refractive index ([3]; x2 = 0.2311): 1.43098 ± 0.00021
- refractive index ([3]; x2 = 0.3083): 1.42967 ± 0.00021
- refractive index ([3]; x2 = 0.3514): 1.42895 ± 0.00021
- refractive index ([3]; x2 = 0.3917): 1.42828 ± 0.00021
- refractive index ([3]; x2 = 0.4314): 1.42762 ± 0.00021
- refractive index ([3]; x2 = 0.4691): 1.427 ± 0.00021
- refractive index ([3]; x2 = 0.5026): 1.42645 ± 0.00021
- refractive index ([3]; x2 = 0.5485): 1.42571 ± 0.00021
- refractive index ([3]; x2 = 0.5911): 1.42502 ± 0.00021
- refractive index ([3]; x2 = 0.6215): 1.42454 ± 0.00021
- refractive index ([3]; x2 = 0.6618): 1.4239 ± 0.00021
- refractive index ([3]; x2 = 0.7097): 1.42314 ± 0.00021
- refractive index ([3]; x2 = 0.7897): 1.42189 ± 0.00021
- refractive index ([3]; x2 = 0.8648): 1.42073 ± 0.00021
- refractive index ([3]; x2 = 0.9456): 1.41948 ± 0.00021
- excess molar enthalpy ([4]; x2 = 0.1): 0.0531 ± 0.0013 kJ/mol
- excess molar enthalpy ([4]; x2 = 0.15): 0.0757 ± 0.0014 kJ/mol
- excess molar enthalpy ([4]; x2 = 0.2): 0.0961 ± 0.0016 kJ/mol
- excess molar enthalpy ([4]; x2 = 0.25): 0.113 ± 0.0017 kJ/mol
- excess molar enthalpy ([4]; x2 = 0.3): 0.127 ± 0.0018 kJ/mol
- excess molar enthalpy ([4]; x2 = 0.35): 0.139 ± 0.0019 kJ/mol
- excess molar enthalpy ([4]; x2 = 0.4): 0.148 ± 0.0019 kJ/mol
- excess molar enthalpy ([4]; x2 = 0.45): 0.154 ± 0.002 kJ/mol
- excess molar enthalpy ([4]; x2 = 0.5): 0.158 ± 0.002 kJ/mol
- excess molar enthalpy ([4]; x2 = 0.55): 0.158 ± 0.002 kJ/mol
- excess molar enthalpy ([4]; x2 = 0.6): 0.155 ± 0.002 kJ/mol
- excess molar enthalpy ([4]; x2 = 0.65): 0.149 ± 0.0019 kJ/mol
- excess molar enthalpy ([4]; x2 = 0.7): 0.141 ± 0.0019 kJ/mol
- excess molar enthalpy ([4]; x2 = 0.75): 0.128 ± 0.0018 kJ/mol
- excess molar enthalpy ([4]; x2 = 0.8): 0.112 ± 0.0017 kJ/mol
- excess molar enthalpy ([4]; x2 = 0.85): 0.0916 ± 0.0016 kJ/mol
- excess molar enthalpy ([4]; x2 = 0.9): 0.0659 ± 0.0014 kJ/mol

Source: the NIST ThermoML archive (doi:10.1021/je025649t)
